# Assay results reported in EPA's ToxValDB 9.5.
# Where “and” joins values, the source holds several entries; their conditions need not be identical. Equal entries are not always repeated.
# Assays:
# [1] = tested on: Mus musculus; settings: oral
# [2] = tested on: Rattus norvegicus; settings: oral
# [3] = developmental, duration: 17 days, F, B6C3F1, Developmental: 42.5% reduced NK cell activity in male pups at 8 weeks of age
# [4] = reproduction developmental, duration: 17 days, F, CD1, Endocrine: Decreased total T4 on GD 6
# [5] = short-term, duration: 21 days, M, CD1, Body Weight: ~15% reduced body weight + Reproductive: ~17% reduced serum testosterone, ~38% reduced epididymal sperm count
# [6] = short-term, duration: 28 days, M, B6C3F1, Immunotoxicological: Suppressed response to sRBC (~60%)
# [7] = subchronic, duration: 60 days, M, Immunotoxicological: Impaired response to sRBC
# [8] = chronic, duration: 14 weeks, M, Sprague-Dawley, Hematological: 45% increase in non-segmented neutrophils
# [9] = chronic, duration: 104 weeks, F, Sprague-Dawley, Body Weight: 14% reduction in final body weight
# [10] = chronic, duration: 104 weeks, M, Sprague-Dawley, Hepatic: Hepatocellular hypertrophy at ?0.1 mg/kg/day / single cell necrosis and cystic degeneration at […]
# [11] = developmental, duration: 20 days, Sprague-Dawley, Developmental: Reduced serum T4 in pups at 1 mg/kg/day / approximately 60% survival at weaning versus 80% in controls at 2 mg/kg/day
# [12] = developmental, duration: 21 days, F, Sprague-Dawley, Developmental: ~30% increased locomotor activity and concurrent failure to habituate to test environment in male pups on PND 17
# [13] = reproduction developmental, duration: 19 days, F, Sprague-Dawley, Body Weight: Decreased mean body weight gain, 10% at 2 mg/kg/day and 33% at 5 mg/kg/day
# [14] = reproduction developmental, duration: 67 days, F, Sprague-Dawley, Body Weight: 22% reduction in body weight gain during premating / food consumption reduced […]
# [15] = reproduction developmental, duration: 84 days, M/F, Sprague-Dawley, Body Weight: >10% reduction in body weight
# [16] = short-term, duration: 28 days, F, Sprague-Dawley, Hematological: Decreased red blood cells (8.9%), hemoglobin (10%), hematocrit (8.8%)
# [17] = short-term, duration: 28 days, M/F, Sprague-Dawley, Endocrine: Decreased T4 level (82% in males / 48% in females)
smiles,measurement,setting,value
O=S(=O)([O-])C(F)(F)C(F)(F)C(F)(F)C(F)(F)C(F)(F)C(F)(F)C(F)(F)C(F)(F)F.[K+] [Potassium perfluorooctanesulfonate],LOAEL,"[1]; developmental, duration: 4 weeks, M, CD1, Developmental: Impaired retention of the task in the water maze test",3 mg/kg-day
same,LOAEL,"[1]; developmental, duration: 1 days, M, CD1, Developmental: 24% decreased total spontaneous activity at 2 months of age / no significant alteration at 4 months",0.75 mg/kg-day
same,LOAEL,"[1]; developmental, duration: 4 days, F, Developmental: 31% reduced percentage of live pups per litter on PND 15",4.5 mg/kg-day
same,LOAEL,"[1]; developmental, duration: 5 days, F, ICR, Developmental: 6.1% increased cleft palate and 12.7% reduced body weight in fetuses",50 mg/kg-day
same,NOAEL,"[1]; developmental, duration: 7 days, F, CD1",6 mg/kg-day
same,LOAEL,"[1]; developmental, duration: 7 days, F, CD1, Developmental: Decreased distance traveled in open field test at 3 months of age",6 mg/kg-day
same,LOAEL,"[1]; developmental, duration: 7 days, F, CD1, Developmental: Reduced body weight of pups on PNDs 4 and 8",6 mg/kg-day
same,LOAEL,[1]; [3],1 mg/kg-day
same,NOAEL,[1]; [3],0.1 mg/kg-day
same,NOAEL,"[1]; developmental, duration: 17 days, F, CD1, Developmental: Increased incidences of sternal defects at ?5 mg/kg/day / reduced percentage of live fetuses (9%) at 20 mg/kg/day",1 mg/kg-day
same,NOAEL,"[1]; developmental, duration: 17 days, F, CD1, Developmental: Peroxisome proliferation in fetal liver at ?5 mg/kg/day",5 mg/kg-day
same,LOAEL,"[1]; developmental, duration: 17 days, F, ICR, Body Weight: 35% reduced maternal body weight + Developmental: 89% increased cleft palate, 25% reduced body weight in fetuses",20 mg/kg-day
same,LOAEL,"[1]; developmental, duration: 18 days, F, ICR, Developmental: GDs 0-18: decreased survival (55.2%) at 10 mg/kg/day on PND 4, decreased neonatal BW, intracranial blood vessel dilatation, …",10 mg/kg-day
same,NOAEL,"[1]; developmental, duration: 18 days, F, ICR, Hepatic: 60% increased absolute liver weight at ?10 mg/kg/day",20 mg/kg-day
same,LOAEL,"[1]; developmental, duration: 21 days, F, Developmental: Decreased locomotion, muscle strength, and motor coordination in adult offspring",0.3 mg/kg-day
same,NOAEL,"[1]; reproduction developmental, duration: 5 days, F, ICR, […] increased maternal relative liver weight",50 mg/kg-day
same,NOAEL,"[1]; reproduction developmental, duration: 13 days, F, CD1, Endocrine: No alterations in serum T3 or T4 levels + Hepatic: 21% increase in absolute liver weight at ?3 mg/kg/day",6 mg/kg-day
same,LOAEL,[1]; [4],20 mg/kg-day
same,NOAEL,[1]; [4],15 mg/kg-day
same,NOAEL,"[1]; reproduction developmental, duration: 17 days, F, CD1, Increase in absolute and relative liver weight and decreased serum triglycerides at ?5 mg/kg/day",20 mg/kg-day
same,NOAEL,"[1]; short-term, duration: 14 days, M, CD1, Hepatic: ~70% increased absolute liver weight at ?5 mg/kg/day",10 mg/kg-day
same,LOAEL,[1]; [5],10 mg/kg-day
same,NOAEL,[1]; [5],5 mg/kg-day
same,NOAEL,"[1]; short-term, duration: 21 days, M, CD1, Hepatic: Increased absolute liver weight at ?5 mg/kg/day",10 mg/kg-day
same,LOAEL,[1]; [6],0.00166 mg/kg-day
same,NOAEL,[1]; [6],0.000166 mg/kg-day
same,LOAEL,[1]; [7],0.0833 mg/kg-day
same,NOAEL,[1]; [7],0.0083 mg/kg-day and 0.0167 mg/kg-day
same,LOAEL,"[2]; acute, duration: 1 days, F, Sprague-Dawley, Endocrine: Transient decrease in serum TT4 (24, 38, and 53% after 2, 6, and 24 hours, respectively)",15 mg/kg-day
same,NOAEL,"[2]; acute, duration: 1 days, M, Sprague-Dawley",10.3 mg/kg-day
same,NOAEL,"[2]; chronic, duration: 14 weeks, F, Sprague-Dawley, Immunotoxicological: No histological alterations + Neurological: No histological alterations",1.56 mg/kg-day
same,LOAEL,[2]; [8],1.33 mg/kg-day
same,NOAEL,[2]; [8],0.34 mg/kg-day
same,NOAEL,"[2]; chronic, duration: 14 weeks, M, Sprague-Dawley, Hepatic: Increased absolute and relative liver weight / increased serum ALT / hepatocyte hypertrophy and vacuolation at 1.33/1.55 mg/kg/…",1.33 mg/kg-day
same,LOAEL,[2]; [9],1.04 mg/kg-day
same,NOAEL,[2]; [9],0.25 mg/kg-day
same,NOAEL,"[2]; chronic, duration: 104 weeks, M/F, Sprague-Dawley, Immunotoxicological: No histological alterations + Neurological: No histological alterations + Reproductive: No histological alterations",1.04 mg/kg-day
same,LOAEL,[2]; [10],1.04 mg/kg-day
same,NOAEL,[2]; [10],0.25 mg/kg-day
same,LOAEL,"[2]; chronic, duration: 91 days, M, Sprague-Dawley, Endocrine: 42% decrease in total T4 levels",0.27 mg/kg-day
same,LOAEL,"[2]; developmental, duration: 2 days, F, Sprague-Dawley, Developmental: Decreased neonatal survival (82% of controls on PND 1)",25 mg/kg-day
same,LOAEL,"[2]; developmental, duration: 2 days, F, Sprague-Dawley, Developmental: Increased neonatal mortality",25 mg/kg-day
same,LOAEL,"[2]; developmental, duration: 4 days, Sprague-Dawley, Body Weight: Weight loss during treatment when treated on GDs 2-5 (22%) or 6-9 (17%) + Developmental: Decreased neonatal survival (90% …",25 mg/kg-day
same,LOAEL,"[2]; developmental, duration: 19 days, F, Sprague-Dawley, Developmental: Increased incidences of cleft palate",10 mg/kg-day
same,LOAEL,[2]; [11],2 mg/kg-day
same,NOAEL,[2]; [11],1 mg/kg-day
same,NOAEL,"[2]; developmental, duration: 21 days, F, Sprague-Dawley",1 mg/kg-day
same,LOAEL,"[2]; developmental, duration: 21 days, F, Sprague-Dawley, Developmental: 2.1-fold increased fetal thyroid cell proliferation on GD 20",1 mg/kg-day
same,LOAEL,[2]; [12],1 mg/kg-day
same,NOAEL,[2]; [12],0.3 mg/kg-day
same,LOAEL,"[2]; developmental, duration: 67 days, F, Sprague-Dawley, >10% decrease in mean pup weight per litter on PND 5 at ?0.4 mg/kg/day / ~50% decrease mean pup survival per litter on PND 5 at ?1.6 mg/kg/…",1.6 mg/kg-day
same,LOAEL,"[2]; developmental, duration: 67 days, F, Sprague-Dawley, Developmental: >10% decrease in mean pup weight per litter on PND 5 at ?0.4 mg/kg/day / ~50% decrease mean pup survival per litter on PND 5…",0.4 mg/kg-day
same,NOAEL,"[2]; developmental, duration: 84 days, M/F, Sprague-Dawley, Developmental: Delayed eye opening and transient decrease in F2 pup body weight (13%) on LDs 7-14 at ?0.4 mg/kg/day / decreased pup …",0.1 mg/kg-day
same,LOAEL,"[2]; developmental, duration: 90 days, F, Sprague-Dawley, Increased pup mortality during PNDs 1-4",1.6 mg/kg-day
same,LOAEL,"[2]; developmental, duration: 91 days, F, Sprague-Dawley, Developmental: 19-36% reduced serum T4 levels in pups on PNDs 21-35 after gestationand/or postnatal-only exposure",3.2 mg/kg-day
same,NOAEL,"[2]; reproduction developmental, duration: 19 days, F, Sprague-Dawley",10 mg/kg-day
same,LOAEL,[2]; [13],2 mg/kg-day
same,NOAEL,[2]; [13],1 mg/kg-day
same,LOAEL,"[2]; reproduction developmental, duration: 19 days, F, Sprague-Dawley, Endocrine: Reduced total and free T4 and T3",1 mg/kg-day
same,LOAEL,[2]; [14],2 mg/kg-day
same,NOAEL,[2]; [14],1.6 mg/kg-day
same,LOAEL,[2]; [15],3.2 mg/kg-day
same,NOAEL,[2]; [15],1.6 mg/kg-day
same,NOAEL,"[2]; reproduction developmental, duration: 84 days, M/F, Sprague-Dawley, Reproductive: No alterations in mating and fertility parameters",3.2 mg/kg-day
same,NOAEL,"[2]; short-term, duration: 4 weeks, F, Sprague-Dawley, Immunotoxicological: No histological alterations + Neurological: No histological alterations",1.77 mg/kg-day
same,NOAEL,"[2]; short-term, duration: 4 weeks, M, Sprague-Dawley, Reproductive: No histological alterations",1.51 mg/kg-day
same,NOAEL,"[2]; short-term, duration: 7 days, M, Sprague-Dawley, Hepatic: Decreased serum cholesterol (38%) and triglyceride (55%) levels at 8.17 mg/kg/day",8.17 mg/kg-day
same,NOAEL,"[2]; short-term, duration: 7 days, M, Sprague-Dawley, Hepatic: Hepatocellular hypertrophy, increased liver weight, decreased serum cholesterol at ?1.79 mg/kg/day",8.96 mg/kg-day
same,NOAEL,"[2]; short-term, duration: 7 days, M, Wistar, Hepatic: 40% increase in absolute liver weight",15 mg/kg-day
same,LOAEL,[2]; [16],7.01 mg/kg-day
same,NOAEL,[2]; [16],3.47 mg/kg-day
same,LOAEL,[2]; [17],1.23 mg/kg-day
same,NOAEL,[2]; [17],0.14 mg/kg-day
same,NOAEL,"[2]; short-term, duration: 28 days, M, Sprague-Dawley, Hepatic: Hepatocellular hypertrophy and decreased serum cholesterol levels at ?1.54 mg/kg/day",7.34 mg/kg-day
same,NOAEL,"[2]; short-term, duration: 28 days, M, Sprague-Dawley, Hepatic: Increased relative liver weight / hepatocellular hypertrophy in males at 5.89 mg/kg/day",5.89 mg/kg-day
same,NOAEL,"[2]; subchronic, duration: 67 days, F, Sprague-Dawley, Hepatic: 16% reduction in serum total cholesterol on PND 5 at ?0.4 mg/kg/day / increased liver weight in dams at ?0.8 mg/kg/day + …",2 mg/kg-day
